Key:
5α-reductase = 5α-reductase inhibitory efficacy: DHT produced in testosterone-stimulated dermal papilla cells (DHT ELISA); type: cell-based; conditions: 50 nM testosterone, 24 hours, produced DHT relative to control
Protocol: After seeding 1 ml of dermal papilla cells (DPCs) by 5×10^5/ml into each well of a 24-well plate, then incubating the same for 24 hours, each of the reaction products prepared according to procedures described in Examples 1 to 72 was added in amounts of 50 μg/ml, 10 μg/ml and 0 μg/ml, respectively, to individual wells. After 1 hour, the wells were subjected to stimulation using 50 nM testosterone (DMSO dissolved). The supernatant was discarded 24 hours after culturing, to thus obtain DPc pellets. A content of dihydrotestosterone (DHT) (DB52021, Hamburg, Germany) was determined by means of enzyme-linked immune-sorbent assay. DPCs cell pellets were seeded in an amount of 100 μL into each of Dihydrotestosterone (DHT) ELISA microtiter strips coated with rabbit anti-DHT antibody, 25 μL of DHT antiserum was seeded in every well, and subjected to a reaction at 2 to 8° C. for 15 to 20 hours, followed by washing the same three times. Thereafter, 100 μL of DHT-HRP enzyme conjugate was seeded in every well and reacted on a shaker at room temperature for 30 minutes, followed by washing the same three times. Furthermore, 100 μL of substrate was seeded in every well and reacted on a shaker at room temperature for 20 to 30 minutes. Then, the product was treated using 100 μL stop solution, and subjected to measurement of absorbance at 450 nm to express an amount of produced DHT by the absorbance (three times repeated). An amount of produced DHT relative to a control was calculated in terms of an inhibitory rate (%), and results thereof are shown in Table 3 below.

mice (C57BL/6, female) = assay: Assessment of anagen phase induction and promotion in shaved mice; type: in vivo
Protocol: Experimentation for effects of inducing and promoting an anagen phase (that is, hair growth period) was performed with 7 weeks-old mice (C57BL/6, female) widely used in assessment of activity for anagen phase induction. First, using an electric shaver, hair on the dorsal part of a mouse was removed. Each mouse was weighed and all mice were divided into groups, each group having five (5) mice, in order to uniformly disperse body weights of the mice. Hair cut regions were coated with an excipient, control and test medicine, respectively. In this regard, the excipient was 95% ethanol, the control was 2% minoxidil, and the test medicine used herein was the compound in Example 8 diluted with 95% ethanol to have a final concentration of 0.5%. Using a brush, each of the above test samples was sufficiently applied to the dorsal part of each mouse once per day.

[1] = 20 days after experimentation, topical once per day on shaved dorsal part, five mice per group, Minoxidil 2%, Example 8 0.5% in 95% ethanol

Row | Compound | 5α-reductase inhibitory rate (%) (5α-reductase; sample concentration 10 μg/ml) | 5α-reductase inhibitory rate (%) (5α-reductase; sample concentration 50 μg/ml) | also measured
1 | CCCCCCCCOC1CCC2(C)C(=CCC3C2CCC2(C)C(C(C)C=CC(C)C(C)C)CCC32)C1 (stereo not drawn) [Compound in Example 71, O-octyl-brassicasterol] | 29 | 38 | –
2 | C/C=C(\CC[C@@H](C)[C@H]1CC[C@H]2[C@@H]3CC=C4C[C@@H](OCCCCCCCC)CC[C@]4(C)[C@H]3CC[C@]12C)C(C)C [Compound in Example 72, O-octyl-fucosterol] | 19 | 35 | –
3 | Nc1cc(N2CCCCC2)nc(N)[n+]1[O-] [Minoxidil, minoxidil, reference compound] | – | – | Number of mouse graded + (improved) (mice (C57BL/6, female); [1]): 1; Number of mouse graded ++ (remarkably improved) (mice (C57BL/6, female); [1]): 2; Number of mouse graded ± (slightly improved) (mice (C57BL/6, female); [1]): 1; Number of mouse graded − (not changed) (mice (C57BL/6, female); [1]): 1
4 | O-dodecyl-β-amyrin [Compound in Example 53] | 31 | 41 | –
5 | O-octadecyl-oleanolic acid [Compound in Example 62] | 29 | 51 | –
6 | O-octadecyl-α-amyrin [Compound in Example 56] | 38 | 49 | –
7 | O-octadecyl-β-amyrin [Compound in Example 54] | 35 | 48 | –
8 | O-octyl-β-boswellic acid [Compound in Example 64] | 35 | 51 | –
9 | betulinic acid stearate [Compound in Example 33] | 31 | 51 | –
10 | brassicasterol stearate [Compound in Example 47] | 24 | 39 | –
11 | desmosterol stearate [Compound in Example 39] | 26 | 41 | –
12 | dihydroandrosterone stearate [Compound in Example 37] | 24 | 38 | –
13 | fucosterol stearate [Compound in Example 49] | 25 | 41 | –
14 | glycyrrhetinic acid stearate [Compound in Example 35] | 24 | 39 | –
15 | oleanolic acid acetate [Compound in Example 23] | 11 | 23 | –
16 | oleanolic acid stearate [Compound in Example 25] | 35 | 41 | –
17 | ursolic acid acetate [Compound in Example 19] | 22 | 31 | –
18 | ursolic acid stearate [Compound in Example 21] | 35 | 51 | –
19 | α-amyrin stearate [Compound in Example 13] | 45 | 57 | –
20 | α-boswellic acid stearate [Compound in Example 28] | 37 | 51 | –
21 | β-amyrin behenate [Compound in Example 9] | 38 | 59 | –
22 | β-amyrin laurate [Compound in Example 6] | 43 | 59 | –
23 | β-amyrin stearate [Compound in Example 8] | 48 | 63 | hair growth in the hair cut region (in words) (mice (C57BL/6, female); 0.5% in 95% ethanol, topical once per day, Table 4 and FIG. 1): rapid hair growth; Number of mouse graded + (improved) (mice (C57BL/6, female); [1]): 1; Number of mouse graded ++ (remarkably improved) (mice (C57BL/6, female); [1]): 3; Number of mouse graded ± (slightly improved) (mice (C57BL/6, female); [1]): 1
24 | β-boswellic acid stearate [Compound in Example 31] | 31 | 47 | –

Source: US20150246058A1, “COMPOSITION FOR PREVENTING HAIR LOSS AND ACCELERATING HAIR GROWTH” (RNS CO., LTD., priority 2012, published 2015)
